Read-outs that look alike come from different tables or passages of the source.
Biological target: T1, SIRT1 (Homo sapiens, UniProt Q96EB6)
T1 sequence (Q96EB6 1-747): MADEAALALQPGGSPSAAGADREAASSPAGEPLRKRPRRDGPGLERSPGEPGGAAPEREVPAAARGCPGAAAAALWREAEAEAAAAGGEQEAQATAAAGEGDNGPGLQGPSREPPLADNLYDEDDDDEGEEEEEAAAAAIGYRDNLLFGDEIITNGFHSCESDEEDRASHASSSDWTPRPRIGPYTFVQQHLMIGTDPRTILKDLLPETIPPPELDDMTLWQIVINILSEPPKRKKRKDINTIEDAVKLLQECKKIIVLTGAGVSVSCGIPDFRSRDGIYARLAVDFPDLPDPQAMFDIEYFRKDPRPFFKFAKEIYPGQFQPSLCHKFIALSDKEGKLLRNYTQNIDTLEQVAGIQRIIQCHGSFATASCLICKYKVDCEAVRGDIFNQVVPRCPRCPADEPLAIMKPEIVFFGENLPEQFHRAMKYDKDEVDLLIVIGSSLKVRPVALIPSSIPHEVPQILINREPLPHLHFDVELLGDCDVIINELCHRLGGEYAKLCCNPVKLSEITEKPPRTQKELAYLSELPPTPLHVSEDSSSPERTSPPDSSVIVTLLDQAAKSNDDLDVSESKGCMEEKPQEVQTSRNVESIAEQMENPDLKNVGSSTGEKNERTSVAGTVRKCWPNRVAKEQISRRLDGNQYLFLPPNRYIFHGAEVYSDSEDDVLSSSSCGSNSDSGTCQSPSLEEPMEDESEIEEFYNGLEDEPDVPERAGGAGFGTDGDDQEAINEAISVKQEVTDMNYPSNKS
Test: Mass spectrometry based SIRT1 deacetylase activation assay (acetylated p53-derived peptide substrate)
Type: biochemical

[1] = 0.5 μM peptide substrate, 120 μM βNAD+, 10 nM SIRT1, 25 min at 25° C.
[2] = 0.5 μM peptide substrate, 120 μM βNAD+, 10 nM SIRT1, 25 min at 25° C., read-out: EC1.5
[3] = 0.5 μM peptide substrate, 120 μM βNAD+, 10 nM SIRT1, 25 minutes at 25° C.

Structure (SMILES)	EC1.5	Fold Act. (percent maximum fold activation)	EC1.5 [3]	Fold Act. (percent maximum fold activation) [3]	other results
O=C(Nc1nccs1)c1cccc2[nH]c(-c3cc(F)ccc3OCCN3CCOCC3)nc12 [Compound 583]					Fold Act. (percent maximum fold activation) [1]: A (Fold activation >200%); EC1.5 [2]: 1000 to 25000 nM
Cc1cnc(NC(=O)c2cncc3[nH]c(-c4ccc(N5CCOCC5)cc4C(F)F)nc23)s1 [Compound 805]			A (EC1.5<1.0 uM)	A (Fold activation >200%)	
O=C(Nc1cccnc1)c1cc(N2CCCC2)cc2[nH]c(-c3ccccc3C(F)F)nc12 [Compound 792]			A (EC1.5<1.0 uM)	A (Fold activation >200%)	
O=C(Nc1cccc(N2CCOCC2)n1)c1cccc2[nH]c(-c3ccc(Cl)cc3C(F)(F)F)nc12 [Compound 868, 2-(4-chloro-2-(trifluoromethyl)phenyl)-N-(6-morpholinopyridin-2-yl)-1H-benzo[d]imidazole-4-carboxamide]			A (EC1.5<1.0 uM)	A (Fold activation >200%)	
Cc1cc(NC(=O)c2cccc3[nH]c(-c4ccnn4-c4ccccc4)nc23)n(C)n1 [Compound 423]					Fold Act. (percent maximum fold activation) [1]: A (Fold activation >200%); EC1.5 [2]: 1000 to 25000 nM
O=C(Nc1nccs1)c1cccc2[nH]c(-c3ccc(OC4CCNC4)cc3)nc12 (stereo not drawn) [Compound 441]					Fold Act. (percent maximum fold activation) [1]: A (Fold activation >200%); EC1.5 [2]: < 1000 nM
O=C(Nc1ccc(CN2CCCC2)cc1)c1cccc2[nH]c(-c3cc(CN4CCCC4)ccc3C(F)(F)F)nc12 [Compound 873, 2-(5-(pyrrolidin-1-ylmethyl)-2-(trifluoromethyl)phenyl)-N-(4-(pyrrolidin-1-ylmethyl)phenyl)-1H-benzo[d]imidazole-4-carboxamide]			A (EC1.5<1.0 uM)	A (Fold activation >200%)	
O=C(NC1CCOC1=O)c1cccc2[nH]c(-c3ccc(F)cc3C(F)(F)F)nc12 (stereo not drawn) [Compound 374]	C (EC1.5 >25 uM)	B (Fold Activation <200%)			
O=C(NC1CCNCC1)c1cccc2[nH]c(-c3cc(F)ccc3C(F)(F)F)nc12 [Compound 438]					Fold Act. (percent maximum fold activation) [1]: B (Fold Activation <200%); EC1.5 [2]: > 25000 nM
O=C(Nc1cccc(OC[C@@H](O)CO)c1)c1cccc2[nH]c(-c3ccc(Cl)cc3C(F)F)nc12 [Compound 699]			A (EC1.5<1.0 uM)	A (Fold activation >200%)	
O=C(Nc1cccnn1)c1cccc2[nH]c(-c3ccccc3OCCN3CCOCC3)nc12 [Compound 488]					Fold Act. (percent maximum fold activation) [1]: B (Fold Activation <200%); EC1.5 [2]: 1000 to 25000 nM
O=C(Nc1cccc(CN2CCOCC2)n1)c1cccc2[nH]c(-c3cc(F)ccc3C(F)(F)F)nc12 [Compound 677]			A (EC1.5<1.0 uM)	A (Fold activation >200%)	
O=C(NCc1ccccn1)c1cccc2[nH]c(-c3ccnn3-c3ccccc3)nc12 [Compound 468]					Fold Act. (percent maximum fold activation) [1]: B (Fold Activation <200%); EC1.5 [2]: > 25000 nM
O=C(Nc1cccnc1)c1cccc2[nH]c(-c3ccc(N4CC[C@H](F)C4)cc3C(F)(F)F)nc12 [Compound 574]					Fold Act. (percent maximum fold activation) [1]: A (Fold activation >200%); EC1.5 [2]: < 1000 nM
CS(=O)(=O)c1ccc(-c2nc3c(C(=O)Nc4ccccn4)cccc3[nH]2)cc1 [Compound 406]					Fold Act. (percent maximum fold activation) [1]: A (Fold activation >200%); EC1.5 [2]: 1000 to 25000 nM
O=C(Nc1cccc(CN2CCCC2)c1)c1cccc2[nH]c(-c3ccc(Cl)cc3C(F)(F)F)nc12 [Compound 490, 2-(4-chloro-2-(trifluoromethyl)phenyl)-N-(3-(pyrrolidin-1-ylmethyl)phenyl)-1H-benzo[d]imidazole-4-carboxamide]					Fold Act. (percent maximum fold activation) [1]: A (Fold activation >200%); EC1.5 [2]: < 1000 nM

More lines, main results first:

EC1.5	Fold Act. (percent maximum fold activation)	EC1.5 [3]	Fold Act. (percent maximum fold activation) [3]	Structure (SMILES)	other results
A (EC1.5<1.0 uM)	A (Fold activation >200%)			Cc1nc(NC(=O)c2cccc3[nH]c(-c4ccc(F)cc4C(F)(F)F)nc23)sc1C [Compound 358]	
A (EC1.5<1.0 uM)	A (Fold activation >200%)			Cc1cc(NC(=O)c2cccc3[nH]c(-c4ccc(Cl)cc4C(F)(F)F)nc23)n(C)n1 [Compound 356]	
A (EC1.5<1.0 uM)	A (Fold activation >200%)			O=C(Nc1nccs1)c1cccc2[nH]c(-c3cccc(OCC(O)CO)c3)nc12 (stereo not drawn) [Compound 324, 2-(3-(2,3-dihydroxypropoxy)phenyl)-N-(thiazol-2-yl)-1H-benzo[d]imidazole-4-carboxamide]	
B (EC1.5 1-25 uM)	A (Fold activation >200%)			O=C(Nc1nccs1)c1cccc2[nH]c(-c3ccccc3N3CCCC3)nc12 [Compound 280]	
		A (EC1.5<1.0 uM)	A (Fold activation >200%)	O=C(Nc1ccccn1)c1cncc2[nH]c(-c3ccccc3C(F)(F)F)nc12 [Compound 636]	
		A (EC1.5<1.0 uM)	A (Fold activation >200%)	O=C(Nc1nccs1)c1cncc2[nH]c(-c3ccc(OC[C@@H](O)CO)cc3C(F)(F)F)nc12 [Compound 758]	
		C (EC1.5 >25 uM)	B (Fold Activation <200%)	O=C(Nc1nccs1)c1cccc2[nH]c(-c3ccccc3OCCN3CCC(F)(F)C3)nc12 [Compound 614]	
		A (EC1.5<1.0 uM)	A (Fold activation >200%)	O=C(Nc1cccnc1)c1cc(N2CCOCC2)cc2[nH]c(-c3ccccc3C(F)(F)F)nc12 [Compound 630]	
B (EC1.5 1-25 uM)	A (Fold activation >200%)			O=C(Nc1nccs1)c1cccc2[nH]c(-c3c(F)cccc3Cl)nc12 [Compound 266]	
		A (EC1.5<1.0 uM)	A (Fold activation >200%)	O=C(Nc1cccnn1)c1cncc2[nH]c(-c3ccc(Cl)cc3C(F)(F)F)nc12 [Compound 651]	
B (EC1.5 1-25 uM)	A (Fold activation >200%)			O=C(Nc1nccs1)c1cccc2[nH]c(-c3ncccc3C(F)(F)F)nc12 [Compound 296]	
		B (EC1.5 1-25 uM)	A (Fold activation >200%)	O=C(Nc1nccs1)c1cccc2[nH]c(-c3cc(N4CC[C@@H](F)C4)ccc3C(F)(F)F)nc12 [Compound 667]	
B (EC1.5 1-25 uM)	A (Fold activation >200%)			O=C(Nc1nccs1)c1cccc2[nH]c(-c3cccc(Oc4ccccc4)c3)nc12 [Compound 224]	
B (EC1.5 1-25 uM)	A (Fold activation >200%)			O=C(Nc1cccc2[nH]c(-c3ccccc3C(F)(F)F)nc12)c1cscn1 [Compound 363]	
A (EC1.5<1.0 uM)	A (Fold activation >200%)			Cc1nc(NC(=O)c2cccc3[nH]c(-c4ccc(Cl)cc4C(F)(F)F)nc23)sc1C [Compound 393]	
		A (EC1.5<1.0 uM)	A (Fold activation >200%)	COc1cc(C(=O)Nc2nccs2)c2nc(-c3ccccc3C(F)(F)F)[nH]c2c1 [Compound 634]	
		A (EC1.5<1.0 uM)	A (Fold activation >200%)	O=C(Nc1nccs1)c1cccc2[nH]c(-c3cc(N4CC[C@H](F)C4)ccc3C(F)(F)F)nc12 [Compound 665]	

— patent US8846947B2, “Benzimidazoles and related analogs as sirtuin modulators” (GlaxoSmithKline LLC, priority 2008, dated 2014)
